Results: ChEMBL document CHEMBL5038570, “Discovery of Novel Pyrrolo[2,3-d]pyrimidine-based Derivatives as Potent JAK/HDAC Dual Inhibitors for the Treatment of Refractory Solid Tumors” (J Med Chem, 2022)
Active and inactive are the calls of the source. No cut-off for these calls is given here.

Tests used:
MDA-MB-231 [1] = assay: Induction of apoptosis in human MDA-MB-231 cells assessed as early apoptotic cells at 10 uM measured after 48 hrs by annexin V-FITC/propidium iodide staining based flow cytometry (reference value: 3.09%); format: functional
[2] = target: T1, Protein deacetylase HDAC6 (Homo sapiens) (UniProt Q9UBN7); assay: Inhibition of HDAC6 (unknown origin) at 10 uM incubated for 60 min by microplate reader analysis relative to control
T1 sequence (whole entry): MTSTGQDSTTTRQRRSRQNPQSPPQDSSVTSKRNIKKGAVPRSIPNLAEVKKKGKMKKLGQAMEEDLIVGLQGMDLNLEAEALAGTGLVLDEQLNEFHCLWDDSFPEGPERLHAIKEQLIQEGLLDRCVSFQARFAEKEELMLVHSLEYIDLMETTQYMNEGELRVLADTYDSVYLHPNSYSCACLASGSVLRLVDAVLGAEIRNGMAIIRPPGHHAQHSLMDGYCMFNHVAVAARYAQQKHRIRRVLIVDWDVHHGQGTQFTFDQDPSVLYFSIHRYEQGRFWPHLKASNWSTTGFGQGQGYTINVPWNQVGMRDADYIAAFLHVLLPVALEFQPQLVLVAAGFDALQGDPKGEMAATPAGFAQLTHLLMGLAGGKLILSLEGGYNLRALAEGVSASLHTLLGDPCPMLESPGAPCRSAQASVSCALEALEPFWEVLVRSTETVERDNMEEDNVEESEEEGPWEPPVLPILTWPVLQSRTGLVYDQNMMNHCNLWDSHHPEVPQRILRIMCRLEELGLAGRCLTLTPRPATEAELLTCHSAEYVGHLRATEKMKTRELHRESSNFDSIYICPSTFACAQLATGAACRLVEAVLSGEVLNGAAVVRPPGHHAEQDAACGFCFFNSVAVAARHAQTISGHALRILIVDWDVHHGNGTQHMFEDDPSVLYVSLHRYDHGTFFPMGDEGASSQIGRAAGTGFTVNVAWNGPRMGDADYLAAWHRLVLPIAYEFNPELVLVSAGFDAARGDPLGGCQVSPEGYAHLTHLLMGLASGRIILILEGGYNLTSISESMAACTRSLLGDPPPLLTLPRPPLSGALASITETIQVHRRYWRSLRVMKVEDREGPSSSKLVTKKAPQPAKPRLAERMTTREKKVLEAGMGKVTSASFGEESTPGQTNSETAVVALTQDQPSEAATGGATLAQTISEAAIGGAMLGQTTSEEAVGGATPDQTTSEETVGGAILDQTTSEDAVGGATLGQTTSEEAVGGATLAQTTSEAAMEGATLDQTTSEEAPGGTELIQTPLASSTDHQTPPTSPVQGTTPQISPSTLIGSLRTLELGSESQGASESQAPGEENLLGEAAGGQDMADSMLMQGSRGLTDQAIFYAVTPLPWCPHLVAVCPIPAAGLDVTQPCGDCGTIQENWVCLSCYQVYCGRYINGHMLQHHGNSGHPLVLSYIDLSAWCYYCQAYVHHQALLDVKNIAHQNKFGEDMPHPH

4T1 [3] = assay: Induction of apoptosis in mouse 4T1 cells assessed as viable cells at 10 uM measured after 48 hrs by annexin V-FITC/propidium iodide staining based flow cytometry (reference value: 89.5%); format: functional
4T1 [4] = assay: Induction of apoptosis in mouse 4T1 cells assessed as late apoptotic cells at 10 uM measured after 48 hrs by annexin V-FITC/propidium iodide staining based flow cytometry (reference value: 4.99%); format: functional
MDA-MB-231 [5] = format: functional, Mus musculus; settings: dose 100 mg/kg; time 14 day
MDA-MB-231 [6] = assay: Induction of apoptosis in human MDA-MB-231 cells assessed as necrotic cells at 10 uM measured after 48 hrs by annexin V-FITC/propidium iodide staining based flow cytometry (reference value: 5.38%); format: functional
4T1 [7] = assay: Induction of apoptosis in mouse 4T1 cells assessed as early apoptotic cells at 10 uM measured after 48 hrs by annexin V-FITC/propidium iodide staining based flow cytometry (reference value: 1.12%); format: functional
4T1 [8] = assay: Induction of apoptosis in mouse 4T1 cells assessed as necrotic cells at 10 uM measured after 48 hrs by annexin V-FITC/propidium iodide staining based flow cytometry (reference value: 4.35%); format: functional
MDA-MB-231 [9] = assay: Induction of apoptosis in human MDA-MB-231 cells assessed as viable cells at 2.5 uM measured after 48 hrs in presence of ruxolitinib by annexin V-FITC/propidium iodide staining based flow cytometry (reference value: 85.7%); format: functional
4T1 [10] = assay: Induction of apoptosis in mouse 4T1 cells assessed as necrotic cells at 5 uM measured after 48 hrs in presence of ruxolitinib by annexin V-FITC/propidium iodide staining based flow cytometry (reference value: 4.35%); format: functional
4T1 [11] = assay: Induction of apoptosis in mouse 4T1 cells assessed as rly apoptotic cells at 5 uM measured after 48 hrs in presence of ruxolitinib by annexin V-FITC/propidium iodide staining based flow cytometry (reference value: 1.12%); format: functional
[12] = target: Tyrosine-protein kinase JAK2 (Homo sapiens, UniProt O60674); assay: Inhibition of JAK2 (unknown origin) assessed as inhibition rate at 10 uM incubated for 60 mins by microplate reader analysis relative to control
Tyrosine-protein kinase JAK2, sequence (O60674 whole entry): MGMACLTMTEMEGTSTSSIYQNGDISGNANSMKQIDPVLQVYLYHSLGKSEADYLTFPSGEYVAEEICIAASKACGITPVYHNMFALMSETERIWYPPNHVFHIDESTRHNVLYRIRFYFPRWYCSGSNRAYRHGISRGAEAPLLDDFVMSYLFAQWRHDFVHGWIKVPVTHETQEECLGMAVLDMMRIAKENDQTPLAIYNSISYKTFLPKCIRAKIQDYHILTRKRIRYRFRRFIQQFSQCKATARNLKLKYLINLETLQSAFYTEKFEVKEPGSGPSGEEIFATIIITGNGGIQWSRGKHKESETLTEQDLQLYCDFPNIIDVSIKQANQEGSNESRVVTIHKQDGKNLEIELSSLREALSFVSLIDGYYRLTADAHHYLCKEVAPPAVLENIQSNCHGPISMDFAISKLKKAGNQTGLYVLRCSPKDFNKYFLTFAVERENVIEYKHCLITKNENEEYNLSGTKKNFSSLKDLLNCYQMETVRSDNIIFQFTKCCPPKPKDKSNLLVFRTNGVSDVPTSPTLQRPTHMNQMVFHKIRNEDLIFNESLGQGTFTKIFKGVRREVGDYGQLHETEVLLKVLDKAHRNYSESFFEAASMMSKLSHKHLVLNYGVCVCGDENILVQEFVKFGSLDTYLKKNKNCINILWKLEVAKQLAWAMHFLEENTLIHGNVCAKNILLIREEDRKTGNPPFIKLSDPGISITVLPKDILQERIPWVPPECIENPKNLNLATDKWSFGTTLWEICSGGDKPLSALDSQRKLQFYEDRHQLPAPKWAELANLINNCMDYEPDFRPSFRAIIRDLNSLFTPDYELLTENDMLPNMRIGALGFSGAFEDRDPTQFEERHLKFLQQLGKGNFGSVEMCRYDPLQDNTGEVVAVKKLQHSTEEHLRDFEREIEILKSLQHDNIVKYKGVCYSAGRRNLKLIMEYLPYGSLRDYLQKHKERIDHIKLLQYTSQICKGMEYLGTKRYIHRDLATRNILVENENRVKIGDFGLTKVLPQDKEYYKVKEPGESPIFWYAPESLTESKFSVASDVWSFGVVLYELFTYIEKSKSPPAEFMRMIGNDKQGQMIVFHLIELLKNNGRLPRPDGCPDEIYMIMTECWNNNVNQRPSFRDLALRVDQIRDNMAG

4T1 [13] = assay: Induction of apoptosis in mouse 4T1 cells assessed as late apoptotic cells at 5 uM measured after 48 hrs in presence of ruxolitinib by annexin V-FITC/propidium iodide staining based flow cytometry (reference value: 4.99%); format: functional
4T1 [14] = assay: Induction of apoptosis in mouse 4T1 cells assessed as viable cells at 5 uM measured after 48 hrs in presence of ruxolitinib by annexin V-FITC/propidium iodide staining based flow cytometry (reference value: 89.5%); format: functional
MDA-MB-231 [15] = assay: Induction of apoptosis in human MDA-MB-231 cells assessed as viable cells at 2.5 uM measured after 48 hrs by annexin V-FITC/propidium iodide staining based flow cytometry (reference value: 85.7%); format: functional

| inhibition [2] | inhibition [12] | Compound | Activity (MDA-MB-231 [1]) [%] | Activity (4T1 [3]) [%] | Activity (4T1 [4]) [%] | TGI (MDA-MB-231 [5]) [%] | Activity (MDA-MB-231 [6]) [%] | Activity (4T1 [7]) [%] | Activity (4T1 [8]) [%] | Activity (MDA-MB-231 [9]) [%] | Activity (4T1 [10]) [%] | Activity (4T1 [11]) [%] | Activity (4T1 [13]) [%] | Activity (4T1 [14]) [%] | Activity (MDA-MB-231 [15]) [%] |
| --- | --- | --- | --- | --- | --- | --- | --- | --- | --- | --- | --- | --- | --- | --- | --- |
| inactive |  | N#CC[C@H](C1CCCC1)n1cc(-c2ncnc3[nH]ccc23)cn1 [RUXOLITINIB] | 6.09 | 89 | 4 | 12 | 6.09 | 2.04 | 4.98 |  |  |  |  |  |  |
|  | inactive | O=C(CCCCCCC(=O)Nc1ccccc1)NO [VORINOSTAT] |  |  |  |  |  |  |  | 25.8 | 1.23 | 28.6 | 4.98 | 65.2 | 57.3 |
